Test results published in US20250304892A1, “APPARATUS, SYSTEM, AND METHOD FOR FORMING A PERTURBABLE BONE MARROW MODEL WITHIN A THREE-DIMENSIONAL MICROPHYSIOLOGICAL SYSTEM” (The Trustees of the University of Pennsylvania, priority 2022, published 2025).

Legend:
Type in all cases: cell-based, human
[1] = test system: micro-engineered bone marrow (MEBM) model; experiment: Mobilization of blood cells from the MEBM model on vascular perfusion with IL-8 or AMD3100
Excerpt: When hormones, cytokines, and other soluble signals produced by peripheral tissues reach the bone marrow, they can induce mature blood cells in the hematopoietic niche to transmigrate across the sinusoidal endothelium and enter the bloodstream. This regulated release of blood cells into circulation is termed mobilization, which represents a critical step in immunity and continuous cellular replenishment required for homeostasis of the hematopoietic system. Having validated the transcriptomic signatures of mature hematopoietic cells in the MEBM model and their capacity for physiologically relevant cell-cell signaling, the MEBM model was evaluated to determine whether it could reconstitute the complex process of mobilization in the integrated context of the vascularized hematopoietic niche. The study was specifically focused on investigating the ability of mature neutrophils differentiated from HSCs in the MEBM model to replicate rapid release of their in vivo counterparts from the bone marrow reserve during immune responses to inflammatory insults. To simulate this situation, the vasculature of the micro-engineered niche was perfused with culture media containing physiologically relevant concentrations of interleukin-8 (IL-8) during infection (5,000 μg/ml), a systemic inflammatory cytokine known to stimulate neutrophil release.
In control experiments without IL-8, the vast majority of mature neutrophils identified by their expression of CD66b were retained in the perivascular space. […] Intravascular translocation of these cells occurred rapidly, within one hour of treatment, consistent with the time scale over which neutrophils are mobilized from the native marrow in an inflammatory setting.
To capture the process of mobilization under the dynamic conditions of continuous vascular perfusion, a time-lapse imaging of neutrophils in the micro-engineered niche was performed at physiological flow rates (10 μl/min). In the IL-8-treated replicates, neutrophils were distributed in the perivascular region initially, but upon cytokine stimulation, a large fraction of these cells entered the neighboring blood vessels in less than 20 minutes. The intravasated cells were then quickly cleared from the observation area in the direction of flow. The cellular content of effluent collected from these devices was composed primarily of non-adherent cells characterized by multilobular nuclei and robust expression of CD66b, confirming the release of terminally differentiated mature neutrophils. During the same time period only a few neutrophils were mobilized in the control group.
The MEBM model was also responsive to AMD3100 (Plerixafor), a CXCR4 antagonist clinically used for mobilizing HSCs and other hematopoietic cells from the bone marrow for autologous transplantation.
Statistically analyses described above were performed as follows. Mobilization of neutrophils in response to IL-8 and AMD3100 was assessed by ordinary one-way ANOVA, with Dunnett correction employed for multiple comparisons. Marker expression (CD15 and CD66b) as compared between AMD3100- and IL-8-mobilized groups was tested by unpaired t-test. Cell populations following irradiation were compared using 2-way ANOVA with multiple comparisons testing adjusted by Dunnett correction. Mobilization following infection was compared between infected and non-infected groups by unpaired t-test. Quantities of neutrophils at inflow and outflow position were compared using Welch's t-test to account for unequal variances in the data. Comparisons between multiplexed Luminex cytokine assays were performed using multiple t-tests, corrected by the Holm-Sidak method.

[2] = test system: micro-engineered bone marrow (MEBM) model; experiment: Stimulation of erythropoiesis in the MEBM model with erythropoietin; settings: Erythropoiesis-Specific Medium (EPO 1 ng/ml)
Procedure: Having confirmed the vascularization and HSC colonization of the micro-engineered niche, the potential to deploy the MEBM model to reconstitute multilineage hematopoiesis was investigated. Considering that hematopoiesis in vivo relies on extrinsic cues to control the fate of HSCs, the hematopoietic investigation was conducted by the addition of soluble factors known to drive lineage differentiation. First, the MEBM model was treated with erythropoietin (EPO) (see “Erythropoiesis-Specific Medium” of Table 1) to stimulate erythropoiesis. […] Following this phenotypic organization, the MEBM model produced a substantial number of round, erythroid cells that were distinguishable by their red color and expression of transferrin receptor (i.e., CD71) and glycophorin A. The micro-engineered niche also supported the differentiation of HSCs into myeloid cells. Stimulation of the MEBM model with myelopoietic media (see Table 1) for 21 days produced a marrow construct densely packed with cells of myeloid lineages, most of which were situated proximate the vasculature. A significant number of the cells were terminally differentiated mature neutrophils as identified by their multisegmented nuclei, intracellular secretory granules, and surface marker expression (CD15+/CD66b+).

[3] = test system: mobilized neutrophils; experiment: Boyden chamber migration assay: chemotaxis of mobilized neutrophils in a gradient of IL-8; settings: over a period of an hour
Procedure: For further investigation, a Boyden chamber migration assay was conducted to measure chemotaxis of mobilized neutrophils in a gradient of IL-8 as a representative endpoint of their functional capacity. […] It was noted that the transmigrated cells in the lower chamber clumped together to form multicellular aggregates, reminiscent of neutrophil swarming in vivo that plays an important functional role in antimicrobial activities of neutrophils.

[4] = image cytometry of CD15 and CD66b staining, cells released by AMD3100

Question: `c1cc(CN2CCCNCCNCCCNCC2)ccc1CN1CCCNCCNCCCNCC1` [AMD3100, Plerixafor, reference compound] was tested. Which “rate of mobilization compared with the IL-8-treated model” value ([1]; AMD3100 25 μg/ml) did it give?
Answer: lower than that in the IL-8-treated model

Question: What about the “neutrophils among the released cells of myeloid lineage” value [1, 4] of the same molecule?
Answer: 56%

Question: What about the “released cells of myeloid lineage” value [1, 4] of the same molecule?
Answer: approximately 65%

Question: What about the “increase in the rate at which cells were released from the device” value ([1]; perfused with clinical dose 25 μg/ml, in comparison to untreated controls) of the same molecule?
Answer: more than fivefold

Question: Which “effect of EPO addition on the micro-engineered niche” value [2] does the source give for “EPO: soluble factor added to stimulate erythropoiesis” here?
Answer: formation of multicellular complexes

Question: With “IL-8: a systemic inflammatory cytokine known to stimulate neutrophil release” as the molecule, how does the “mature neutrophils in the population of released cells” value ([1]; IL-8-induced mobilization, image cytometry) read?
Answer: 76%

Question: And the “egress of CD66b+ cells from the stromal compartment into the vascular lumen” value ([1]; IL-8 infused through the vasculature (5,000 μg/ml), compared with control without IL-8)?
Answer: substantial egress of CD66b+ cells

Question: What about the “time until a large fraction of neutrophils entered the neighboring blood vessels” value ([1]; time-lapse imaging, continuous vascular perfusion at 10 μl/min, upon cytokine stimulation) of the same molecule?
Answer: less than 20 minutes

Question: What about the “cells that moved across the membrane” value [3] of the same molecule?
Answer: ~80%
